From patent publication US20250186409A1, “5-AMINOHEXAHYDRO-6,7,8-TRIHYDROXY-3H-OXAZOLO[3,4-A]PYRIDIN-3-ONE DERIVATIVES DERIVATIVES AS TLR4 MODULATORS FOR THE TREATMENT OF IMMUNE DISEASES” (CONSEJO SUPERIOR DE INVESTIGACIONES CIENTÍFICAS (CSIC), priority 2021, published 2025) come the findings set out here.

Data set [1] deals with glycosidases (human fibroblast lysates). The data set can be described thus: Stability of the glycosidic linkage to glycosidases on incubation with human fibroblast lysates. Type of data set: in vitro ADME. As to conditions: 4 h, 37° C., pH 4.5, compound solution 200 μM, gas chromatography. As to the method: The stability of the glyosidic linkage in compounds 2, 4, 6, 8, 10, 12, 14, 16, 18, 20, 22, 25, 27, 29, 32 and 34 selected as representative examples, upon incubation with human fibroblast lysates for 4 h was checked. For such purpose, cells were scraped into ice-cold H2O (10^6 cells mL^−1) and lysed by sonication. Insoluble materials were removed by centrifugation at 15,000 rpm for 5 min and protein concentrations were determined with Protein Assay Rapid Kit (WAKO, Tokyo, Japan). 10 μL of the lysates in 0.1% Triton X-100 in distilled water were incubated at 37° C. with 20 μL of the compound solution (200 μM) in 0.1 M citrate buffer, pH 4.5. In control experiments, the activity of several lysosomas glycosidases was confirmed using fluorescent substrates. The substrates were 4-methylumbelliferone (4-MU)-conjugated β-D-glucopyranoside (for GCase), α-D-glucopyranoside (for α-glucosidase), α-D-galactopyranoside (for α-Galase) and β-D-galactopyranoside (for β-galactosidase). The liberated 4-methylumbelliferone was measured in the black-well plate with a Perkin Elmer Luminescence Spectrometer (excitation wavelength: 340 nm; emission: 460 nm). No traces of the free polysubstituted 2-oxa-3-oxoindolizidine, which would result from hydrolysis of the glycolipid mimetics, was detected by gas chromatography upon trimethylsilylation, confirming the stability of the compounds to the action of the glycosidases.

Data set [2] relates to Splenocytes. As to the kind of experiment: Suppression of LPS-induced inflammation (splenocytes in vitro). It counts as cell-based, mouse. Conditions: splenocytes treated concurrently with compound and LPS, FIG. 1. On the procedure:
FIG. 1. […] Splenocytes were treated concurrently with the compounds of the invention and LPS to assess the suppressive function of compounds on LPS-induced inflammation, with several compounds showing prominent suppressive function.
(§1) The whole spleen was surgically removed from a mouse and mechanically dissociated into a single cell suspension of splenocytes, which were then cultured in the complete RPMI 1640 medium (cRPMI). Human peripheral blood mononuclear cells (PBMCs) from healthy volunteers were collected from whole blood through gradient-centrifugation with Histopaque-1077 (Sigma-Aldrich).
Splenocytes were treated concurrently with the compounds of the invention and LPS to assess the suppressive function of compounds on LPS-induced inflammation.

The subject of data set [3] is bone marrow-derived macrophages (BMDM). The data set can be described thus: Suppression of LPS-induced inflammation (BMDM in vitro). Conditions: FIG. 2; for suppression of IL-6 / suppression of TNFα: LPS-induced, BMDM; for suppression of IL-6: 50 μM; for suppression of TNFα: 10 and 50 μM. It counts as cell-based. The source says:
Since macrophage is the major responder to LPS-induced inflammation, we assessed the capability of selected compounds to suppress LPS-induced inflammation in bone marrow-derived macrophages (BMDM).

In data set [4] the test system is ERK and p38 of the MAPK family, JNK and STAT3. The data set can be described thus: Signal transduction by multiplex bead array (phosphorylation versus LPS treatment alone). It counts as cell-based. Conditions: compared to LPS treatment alone, 30 min post-treatment, FIG. 4. The source says:
FIG. 4. […] Compounds 4 and 14, the representative compounds of the invention, were examined in term of signal transduction to explore how the new compounds exert their suppressive effect, using the multiplex bead array.
Using the multiplex bead array, we examined how the new compounds might exert their suppressive effect in term of signal transduction.

For data set [5], the system named is OVA-induced AHR mouse model. The data set can be described thus: OVA-induced airway hyperreactivity (AHR) and airway inflammation mouse model. It counts as in vivo. Conditions: for suppression of OVA-induced airway hyperreactivity (AHR): OVA-induced AHR mouse model, FIG. 7; for suppression of IL-4 mRNA level in lungs / suppression of IL-13 mRNA level in lungs: lung mRNA, FIG. 10. As to the method:
For ovalbumin (OVA) challenge, mice were sensitized intraperitoneally (i.p.) with 50 μg of OVA with 2% alhydrogel adjuvant (InvivoGen). Mice were challenged three times with 50 μg of OVA on day 7 post-sensitization, either daily or every other day. Mice were sacrificed the day after the last OVA challenge.
Mice were anesthetized with 100 mg per kg body weight pentobarbital (Sigma-Aldrich), tracheotomised and mechanically ventilated via the FinePointe RC system (Buxco Research Systems, Wilmington, NC). Lung function was assessed by measuring lung resistance and dynamic compliance in response to increasing doses of aerosolized methacholine (1.25-40 mg/mL, Sigma-Aldrich).
Upon exposure of the trachea, the lungs were lavaged twice with 1 mL of PBS supplemented with 2% fetal calf serum (FCS). BALF was pooled and BAL cells were pelleted by centrifugation and fixed onto cytospin slides. The slides were stained with Diff-Quik solution (Polysciences Inc) and BAL differential cell count was performed.
Using the Th2 OVA-induced AHR mouse model, we assessed the capability of selected compounds 14 and 29 in suppressing Th2 inflammation.

The subject of data set [6] is B6 mice. The data set can be described thus: Suppression of LPS-induced inflammation in vivo. As to conditions: injected twice in a half hour time after LPS-treatment, FIG. 3. On the procedure: FIG. 3. […] The in vivo capability of compound 29 in suppressing LPS-induced inflammation in B6 mice was assessed as indicated in the scheme.
To determine the anti-inflammatory function in vivo, we assessed the capability of compound 29 in suppressing LPS-induced inflammation in B6 mice.

Data set [7] concerns B6 mice. The data set can be described thus: Adjuvancy function of compounds in vivo (serum IFNγ and IL-4). Conditions: FIG. 11. As to the method: FIG. 11. […] The adjuvancy capability of the selected compound 29 in vivo was assessed by measuring the serum level of IFNγ and IL-4 induced after injecting them into B6 mice.
Besides assessing the ability of the new compounds to suppress inflammation, we also looked into their function to act as adjuvants, i.e. their ability to promote desirable immunological trends in the development of vaccines. We measured the in vivo adjuvancy capability of selected compounds 29 in inducing IFNγ and IL-4 in B6 mice (FIG. 11).

Data set [8] concerns Splenocytes. As to the kind of experiment: Immune-stimulating function of compounds alone (splenocytes in vitro). It counts as cell-based, mouse. As to conditions: splenocytes treated with compound alone, FIG. 6. On the procedure: FIG. 6. […] Splenocytes were treated with the compounds of the invention alone to assess the immune-stimulating function of the compounds.
as §1
Splenocytes were treated with the compounds of the invention alone to assess the immune-stimulating function of the compounds by measuring their ability to promote the secretions of IFN-γ and IL-4.

[9] abbreviates: bronchoalveolar lavage fluid, FIG. 8.

Each structure is given as a SMILES string. Entries after “also recorded” stand apart in the source; their conditions may differ.

`CCOP(=O)(N[C@@H]1C(O)[C@@H](O)[C@H](O)C2COC(=O)N21)OCC` (stereo partly shown) [Compound 2]: the “free polysubstituted 2-oxa-3-oxoindolizidine from hydrolysis of the glycolipid mimetic (stability to glycosidases)” value in data set [1] is on record as “No traces”.
As for `CCCCCCCCOP(=O)(N[C@@H]1C(O)[C@@H](O)[C@H](O)C2COC(=O)N21)OCCCCCCCC` (stereo partly shown) [Compound 4], the “free polysubstituted 2-oxa-3-oxoindolizidine from hydrolysis of the glycolipid mimetic (stability to glycosidases)” value in data set [1] was “No traces”. Further, the “suppression of LPS-induced inflammation” value with Splenocytes [2] is “prominent inflammation-suppressing function”. Besides, in data set [3], the “suppression of LPS-induced inflammation in BMDM” value is “efficient in suppressing LPS-induced inflammation”, the “suppression of IL-6” value was “significant suppression” and the “suppression of TNFα” value is listed as “significant suppression”. In addition, in data set [4], the “phosphorylation of ERK” value is “significantly reduced”, the “phosphorylation of JNK” value was “but not JNK” and the “phosphorylation of p38” value is listed as “significantly reduced”.
`CCCCCCCCCCCCOP(=O)(N[C@@H]1C(O)[C@@H](O)[C@H](O)C2COC(=O)N21)OCCCCCCCCCCCC` (stereo partly shown) [Compound 6]: the “free polysubstituted 2-oxa-3-oxoindolizidine from hydrolysis of the glycolipid mimetic (stability to glycosidases)” value in data set [1] was “No traces”. Further, the “suppression of LPS-induced inflammation” value in the data set with Splenocytes [2] is recorded as “prominent inflammation-suppressing function”.
Turning to `CCCCNS(=O)(=O)N[C@@H]1C(O)[C@@H](O)[C@H](O)C2COC(=O)N21` (stereo partly shown) [Compound 8], the “free polysubstituted 2-oxa-3-oxoindolizidine from hydrolysis of the glycolipid mimetic (stability to glycosidases)” value in data set [1] was “No traces”.
As to `CCCCCCCCNS(=O)(=O)N[C@@H]1C(O)[C@@H](O)[C@H](O)C2COC(=O)N21` (stereo partly shown) [Compound 10], in data set [1], the “free polysubstituted 2-oxa-3-oxoindolizidine from hydrolysis of the glycolipid mimetic (stability to glycosidases)” value is “No traces”.
As for `CCCCCCCCCCCCNS(=O)(=O)N[C@@H]1C(O)[C@@H](O)[C@H](O)C2COC(=O)N21` (stereo partly shown) [Compound 12], in data set [1], the “free polysubstituted 2-oxa-3-oxoindolizidine from hydrolysis of the glycolipid mimetic (stability to glycosidases)” value is recorded as “No traces”.
For the compound `CCCCCCCCCCCCCCCCNS(=O)(=O)N[C@@H]1C(O)[C@@H](O)[C@H](O)C2COC(=O)N21` (stereo partly shown) [Compound 14], in data set [1], the “free polysubstituted 2-oxa-3-oxoindolizidine from hydrolysis of the glycolipid mimetic (stability to glycosidases)” value is listed as “No traces”. Besides, the “suppression of LPS-induced inflammation” value with Splenocytes [2] is “prominent inflammation-suppressing function”. Further, in data set [5], the “suppression of OVA-induced airway hyperreactivity (AHR)” value is given as “can suppress AHR onset”, the “suppression of IL-4 mRNA level in lungs” value is on record as “significantly suppressed” and the “suppression of IL-13 mRNA level in lungs” value is on record as “significantly suppressed”. In addition, in data set [3], the “suppression of LPS-induced inflammation in BMDM” value is “efficient in suppressing LPS-induced inflammation”, the “suppression of IL-6” value was “significant suppression” and the “suppression of TNFα” value was “significant suppression”. Besides, in data set [4], the “phosphorylation of ERK” value was “significantly reduced”, the “phosphorylation of JNK” value is “but not JNK”, the “phosphorylation of STAT3” value is reported as “significant reduction” and the “phosphorylation of p38” value is “significantly reduced”.
Consider `CCCCCCCCOS(=O)(=O)N[C@@H]1C(O)[C@@H](O)[C@H](O)C2COC(=O)N21` (stereo partly shown) [Compound 16], for which the “free polysubstituted 2-oxa-3-oxoindolizidine from hydrolysis of the glycolipid mimetic (stability to glycosidases)” value in data set [1] was “No traces”.
Turning to `CCCCCCCCCCCCOS(=O)(=O)N[C@@H]1C(O)[C@@H](O)[C@H](O)C2COC(=O)N21` (stereo partly shown) [Compound 18], the “free polysubstituted 2-oxa-3-oxoindolizidine from hydrolysis of the glycolipid mimetic (stability to glycosidases)” value in data set [1] was “No traces”.
For the compound `CCCCCCCCCCCCCCCCOS(=O)(=O)N[C@@H]1C(O)[C@@H](O)[C@H](O)C2COC(=O)N21` (stereo partly shown) [Compound 20], in data set [1], the “free polysubstituted 2-oxa-3-oxoindolizidine from hydrolysis of the glycolipid mimetic (stability to glycosidases)” value was “No traces”.
`CCCCCCCCS(=O)(=O)N[C@@H]1C(O)[C@@H](O)[C@H](O)C2COC(=O)N21` (stereo partly shown) [Compound 22]: the “free polysubstituted 2-oxa-3-oxoindolizidine from hydrolysis of the glycolipid mimetic (stability to glycosidases)” value in data set [1] is listed as “No traces”.
With `CCCCCCCCNC(=[Se])N[C@@H]1C(O)[C@@H](O)[C@H](O)C2COC(=O)N21` (stereo partly shown) [Compound 25], in data set [1], the “free polysubstituted 2-oxa-3-oxoindolizidine from hydrolysis of the glycolipid mimetic (stability to glycosidases)” value was “No traces”.
In the case of `CCCCCCCCCCCCNC(=S)N[C@@H]1C(O)[C@@H](O)[C@H](O)C2COC(=O)N21` (stereo partly shown) [Compound 27], the “free polysubstituted 2-oxa-3-oxoindolizidine from hydrolysis of the glycolipid mimetic (stability to glycosidases)” value in data set [1] was “No traces”. Moreover, the “suppression of LPS-induced inflammation” value in the data set on Splenocytes [2] was “prominent inflammation-suppressing function”.
As to `CCCCCCCCCCCCNC(=[Se])N[C@@H]1C(O)[C@@H](O)[C@H](O)C2COC(=O)N21` (stereo partly shown) [Compound 29], the “suppression of LPS-induced serum TNFα” value in the data set with B6 mice [6] is given as “significantly suppressed; also recorded: significantly suppressing”. In the data set on B6 mice [7] (2 hours after injection), the “induction of serum IFNγ” value is reported as “significant capability” and the “induction of serum IL-4” value is “significant capability”. For the same compound, the “serum IFNγ level” value in the data set with B6 mice [7] (18 hours after injection) was “significant detectable level”. The “free polysubstituted 2-oxa-3-oxoindolizidine from hydrolysis of the glycolipid mimetic (stability to glycosidases)” value in data set [1] was “No traces”. In addition, the “suppression of LPS-induced inflammation” value in the data set with Splenocytes [2] is recorded as “prominent inflammation-suppressing function”. In data set [5], the “suppression of OVA-induced airway hyperreactivity (AHR)” value is on record as “suppress AHR significantly”, the “suppression of IL-4 mRNA level in lungs” value is “significantly suppressed” and the “suppression of IL-13 mRNA level in lungs” value was “significantly suppress; also recorded: significantly suppressed”. In addition, in data set [5] (setting [9]), the “suppression of IL-4 level in BALF” value was “suppress both IL-13 and IL-4 levels significantly”; the “suppression of IL-13 level in BALF” value is “suppress both IL-13 and IL-4 levels significantly”. Further, the “suppression of IL-13 protein level in lungs” value in data set [5] (lung protein, FIG. 9) is listed as “significantly suppress; also recorded: significant suppression”. In the data set on Splenocytes [8], the IFNγ secretion result is reported as “effective in promoting; also recorded: induced significant IFNγ secretion” and the IL-4 secretion result was “but not IL-4”.
With `CCCCCCCCCCCCCCCCNC(=[Se])N[C@@H]1C(O)[C@@H](O)[C@H](O)C2COC(=O)N21` (stereo partly shown) [Compound 32], the “free polysubstituted 2-oxa-3-oxoindolizidine from hydrolysis of the glycolipid mimetic (stability to glycosidases)” value in data set [1] is “No traces”.
For `CCCCCCCCCCCCOC(=S)N[C@@H]1C(O)[C@@H](O)[C@H](O)C2COC(=O)N21` (stereo partly shown) [Compound 34], the “free polysubstituted 2-oxa-3-oxoindolizidine from hydrolysis of the glycolipid mimetic (stability to glycosidases)” value in data set [1] is recorded as “No traces”.
